Among the data in patent US11673892B2, “Bicyclic compounds for use as RIP1 kinase inhibitors” (Genentech, Inc., priority 2017, dated 2023) are Ki values, retold here.

SMILES strings stand for the structures. Where only a bound is given, the exact number is not on record here.

The assay concerns the target T1, human RIP1 kinase domain (2-375) (Homo sapiens, UniProt Q13546).
T1 construct: Purified human RIP1 kinase domain (2-375) (50 nM); made in house; host or cells: baculovirus-infected insect cells
T1 sequence (Q13546 2-375): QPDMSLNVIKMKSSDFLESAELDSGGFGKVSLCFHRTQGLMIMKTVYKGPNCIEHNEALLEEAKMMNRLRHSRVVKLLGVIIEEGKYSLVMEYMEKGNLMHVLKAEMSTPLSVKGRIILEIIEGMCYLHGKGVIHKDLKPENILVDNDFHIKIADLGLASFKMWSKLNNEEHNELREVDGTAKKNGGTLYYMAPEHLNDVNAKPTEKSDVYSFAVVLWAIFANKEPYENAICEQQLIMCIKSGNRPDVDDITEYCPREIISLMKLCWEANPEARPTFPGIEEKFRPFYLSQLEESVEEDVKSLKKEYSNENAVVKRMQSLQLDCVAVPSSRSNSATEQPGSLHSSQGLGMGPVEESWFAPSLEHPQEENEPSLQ
Put plainly: RIP1 kinase inhibition biochemical assay (Transcreener ADP, fluorescence polarization). Particulars: Ki app (Morrison tight-binding fit); 50 nM enzyme, 50 uM ATP, 2 hours incubation. As to the method: RIP1 Kinase Inhibition Assays (Biochemical Assay)
The compounds of the present invention were tested for their capacity to inhibit RIP1K activity as described below.
The ability of the receptor interacting protein kinase (RIPK1) to catalyze the hydrolysis of adenosine-5′-triphosphate (ATP) is monitored using the Transcreener ADP (adenosine-5′-diphosphate) assay (BellBrook Labs). Purified human RIP1 kinase domain (2-375) (50 nM) derived from a baculovirus-infected insect cell expression system is incubated with test compounds for 2 hours in 50 mM Hepes buffer (pH 7.5) containing 30 mM MgCl2, 1 mM dithiothreitol, 50 uM ATP, 0.002% Brij-35, and 0.5% dimethyl sulfoxide (DMSO). Reactions are quenched by the addition of 1× Bell Brooks Stop buffer B (20 mM Hepes (ph7.5), 40 mM ethylenediaminetetraacetic acid and 0.02% Brij-35) containing an additional 12 mM EDTA and 55 ug/mL ADP2 antibody and 4 nM ADP-AlexaFluor® 633 tracer. The tracer bound to the antibody is displaced by the ADP generated during the RIP1K reaction, which causes a decrease in fluorescence polarization that is measured by laser excitation at 633 nm with a FP microplate reader M1000. Fractional activity was plotted against test article concentration. Using Genedata Screener software (Genedata; Basel, Switzerland), the data were fit to the tight-binding apparent inhibition constant (Ki^app) Morrison equation [Williams, J. W. and Morrison, J. F. (1979) The kinetics of reversible tight-binding inhibition. Methods Enzymol 63: 437-67]. The following equation was used to calculate fractional activity and Ki^app:
[formula] where [E]T and [I]T are the total concentrations of active enzyme and test article, respectively.
Exemplary compounds of the present invention are provided in Table 1 along with their physiochemical characterization and in vitro RIP1 kinase inhibitory activity data. “Method” in the first column of each table refers to the synthetic method(s) used to prepare each compound as shown in the Examples above. In certain examples, chiral column retention times (min) are provided for certain stereoisomers. Unless otherwise specified, the stereochemistry shown in each structure represents relative configuration of a single stereoisomer, and absolute configuration (i.e., “R” and/or “S”) is arbitrarily assigned. In some embodiments, where the Method is described to include the separation of stereoisomers, a single stereoisomer of a compound of Table 1 is provided.
(Polarisation of emitted light reports the rotation of a fluorescent probe.)
For `CC1(C(F)(F)c2nc3n(n2)[C@H](c2ccccc2)C[C@@H]3F)COC1` (single isomer, unassigned) [Example 17], the Ki stood at 0.034 µM.

As to `CC1(C)CC1c1nc2n(n1)[C@H](c1ccccc1)C[C@@H]2F` (stereo partly drawn) [Example 30, (5S,7S)-2-(2,2-dimethylcyclopropyl)-7-fluoro-5-phenyl-6,7-dihydro-H-pyrrolo[1,2-b][1,2,4]triazole], the Ki stood at 0.081 µM.

`C[C@H]1C[C@@H]1c1nc2n(n1)[C@H](c1ccccc1)C[C@@H]2F` (single isomer, unassigned) [Example 95] returned a Ki of 0.039 µM.

Turning to `Cc1ncnn1-c1nc2n(n1)[C@H](c1ccccc1)C[C@@H]2F` (single isomer, unassigned) [Example 74], the Ki worked out at 0.07 µM.

`Fc1ccccc1[C@@H]1CCc2nc(CC3CC3)nn21` (single isomer, unassigned) [Example 98] showed a Ki of 0.19 µM.

In turn, `Cc1nccn1-c1nc2n(n1)[C@H](c1ccccc1)C[C@@H]2F` (single isomer, unassigned) [Example 67] had a Ki of 0.89 µM.

In the case of `N#CCc1cnn(-c2nc3n(n2)[C@H](c2ccccc2)C[C@@H]3F)c1` (single isomer, unassigned) [Example 77], the Ki was found to be 0.26 µM.

`N#CCc1nc2n(n1)[C@H](c1ccccc1)C[C@@H]2F` (racemic) [Example 102, 2-[rac-(5S,7S)-7-fluoro-5-phenyl-6,7-dihydro-5H-pyrrolo[1,2-b][1,2,4]triazol-2-yl]acetonitrile] returned a Ki of 0.73 µM.

As for `F[C@H]1C[C@@H](c2ccccc2)n2nc(-n3cc(-c4ccncn4)cn3)nc21` (single isomer, unassigned) [Example 41], the Ki came to 0.26 µM.

`F[C@H]1C[C@@H](c2ccccc2)n2nc(-n3cc(Cl)cn3)nc21` [Example 60, (5S,7S)-2-(4-chloropyrazol-1-yl)-7-fluoro-phenyl-6,7-dihydro-5H-pyrrolo[1,2-b][1,2,4]triazole]: the Ki was 0.0045 µM.

`CC[C@](C)(F)c1nc2n(n1)[C@H](c1ccccc1)C[C@@H]2F` (single isomer, unassigned) [Example 27] returned a Ki of 0.033 µM.

In the case of `CC#Cc1nc2n(n1)[C@H](c1ccccc1)C[C@@H]2F` [Example 44, (5S,7S)-7-fluoro-5-phenyl-2-prop-1-ynyl-6,7-dihydro-5H-pyrrolo[1,2-b][1,2,4]triazole], the Ki came out at 0.89 µM.

Take `F[C@H]1C[C@@H](c2ccccc2)n2nc(-n3cnc(Cl)c3)nc21` (single isomer, unassigned) [Example 75]: the Ki was 0.1 µM.

The molecule `F[C@H]1C[C@@H](c2ccccc2)n2nc([C@H](F)C34CC(C3)C4)nc21` (single isomer, unassigned) [Example 45] gave a Ki of 0.23 µM.

On to `C=CCc1nc2n(n1)[C@H](c1ccccc1)C[C@@H]2F` (single isomer, unassigned) [Example 52], for which the Ki came out at 0.1 µM.

For `C=C(CC)c1nc2n(n1)[C@H](c1ccccc1)C[C@@H]2F` (single isomer, unassigned) [Example 97], the Ki worked out at 0.2 µM.

With `N#CC1CN(c2nc3n(n2)[C@H](c2ccccc2)C[C@@H]3F)C1` (single isomer, unassigned) [Example 100], the Ki was determined as 0.25 µM.

On to `N#Cc1ccn(-c2nc3n(n2)[C@H](c2ccccc2)C[C@@H]3F)n1` (single isomer, unassigned) [Example 53], for which the Ki was found to be 0.28 µM.

`CCCc1nc2n(n1)[C@@H](c1ccccc1)C[C@H]2F` (racemic) [Example 10, Cis-(5S,7S)-7-fluoro-5-phenyl-2-propyl-6,7-dihydro-5H-pyrrolo[1,2-b][1,2,4]triazole] came in with a Ki of 0.078 µM.

`F[C@H]1C[C@@H](c2ccccc2)n2nc(-n3nnc4c3CCCC4)nc21` (racemic) [Example 86, 1-(rac-(5S,7S)-7-fluoro-5-phenyl-6,7-dihydro-5H-pyrrolo[1,2-b][1,2,4]triazol-2-yl]-4,5,6,7-tetrahydrobenzotriazole] yielded a Ki of 0.018 µM.

On to `Cc1nn(-c2nc3n(n2)[C@H](c2ccccc2)C[C@@H]3F)cc1C#N` (single isomer, unassigned) [Example 92], for which the Ki amounted to 0.25 µM.

The molecule `Cc1cc(C#N)nn1-c1nc2n(n1)[C@H](c1ccccc1)C[C@@H]2F` (single isomer, unassigned) [Example 91] displayed a Ki of 0.013 µM.

With `FC(F)CCc1nc2n(n1)[C@H](c1ccccc1)C[C@@H]2F` (single isomer, unassigned) [Example 29], the Ki is 0.022 µM.

Consider `F[C@H]1C[C@@H](c2ccccc2)n2nc(C3CC3C(F)(F)F)nc21` (stereo partly drawn) [Example 33, (5S,7S)-7-fluoro-5-phenyl-2-(2-(trifluoromethyl)cyclopropyl)-6,7-dihydro-5H-pyrrolo[1,2-b][1,2,4]triazole], for which the Ki amounted to 0.034 µM.

Molecule `F[C@H]1C[C@@H](c2ccccc2)n2nc(-n3ccnc3)nc21` (single isomer, unassigned) [Example 66] yielded a Ki of 0.89 µM.

As for `F[C@H]1C[C@@H](c2ccccc2)n2nc(-n3nnc4cc(Cl)ccc43)nc21` (racemic) [Example 82, 5-chloro-1-[rac-(5S,7S)-7-fluoro-5-phenyl-6,7-dihydro-5H-pyrrolo[1,2-b][1,2,4]triazol-2-yl]benzotriazole], the Ki was determined as 0.0092 µM.

`OC(c1nc2n(n1)[C@H](c1ccccc1)C[C@@H]2F)[C@H]1C[C@@H]1F` (stereo partly drawn) [Example 106, [(1R,2S)-2-fluorocyclopropyl]-[(5S,7S)-7-fluoro-5-phenyl-6,7-dihydro-5H-pyrrolo[1,2-b][1,2,4]triazol-2-yl]methanol] returned a Ki of 0.11 µM.

In turn, `F[C@H]1C[C@@H](c2ccccc2)n2nc(-n3ccc(C(F)(F)F)n3)nc21` (single isomer, unassigned) [Example 64] returned a Ki of 0.61 µM.

As to `[2H]C(c1nc2n(n1)[C@H](c1ccccc1)C[C@@H]2F)C1CC1` (stereo partly drawn) [Example 101, (5S,7S)-2-[cyclopropyl(deuterio)methyl]-7-fluoro-5-phenyl-6,7-dihydro-5H-pyrrolo[1,2-b][1,2,4]triazole], the Ki turned out to be 0.009 µM.

As for `F[C@H]1C[C@@H](c2ccccc2)n2nc(-n3cc(C(F)(F)F)cn3)nc21` (single isomer, unassigned) [Example 56], the Ki was under 0.005 µM.

Molecule `CC(C)OCc1nc2n(n1)[C@H](c1ccccc1)C[C@@H]2F` [Example 37, (5S,7S)-7-fluoro-2-(isopropoxymethyl)-5-phenyl-6,7-dihydro-5H-pyrrolo[1,2-b][1,2,4]triazole] gave a Ki of 3 µM.

As for `Cn1ccc(-c2nc3n(n2)[C@H](c2ccccc2)C[C@@H]3F)n1` (single isomer, unassigned) [Example 19], the Ki is 1.1 µM.

Turning to `FC1CC(c2ccccc2)n2nc(C3CC3)nc21` (racemic) [Example 11, Cis-2-cyclopropyl-7-fluoro-5-phenyl-6,7-dihydro-5H-pyrrolo[1,2-b][1,2,4]triazole], the Ki was found to be 0.32 µM.

As to `Cc1ncn(-c2nc3n(n2)[C@H](c2ccccc2)C[C@@H]3F)c1C` (single isomer, unassigned) [Example 70], the Ki amounted to 0.18 µM.

`Fc1ccccc1[C@@H]1C[C@H](F)c2nc(C(F)(F)C3CC3)nn21` (single isomer, unassigned) [Example 104] had a Ki of 0.004 µM.

Consider `CC[C@H](F)c1nc2n(n1)[C@H](c1ccccc1)C[C@@H]2F` (racemic) [Example 8, rac-(5S,7S)-7-fluoro-5-phenyl-2-[rac-(1S)-1-fluoropropyl]-6,7-dihydro-5H-pyrrolo[1,2-b][1,2,4]triazole], for which the Ki was 0.014 µM.

`F[C@H]1C[C@@H](c2ccccc2)n2nc(-n3ncc4cnccc43)nc21` (single isomer, unassigned) [Example 89]: the Ki was determined as 0.81 µM.

As to `OC(c1nc2n(n1)C(c1ccccc1)CC2F)C(F)(F)F` [Example 4, cis-(5S,7S)-2,2,2-trifluoro-1-(7-fluoro-5-phenyl-6,7-dihydro-5H-pyrrolo[1,2-b][1,2,4]triazol-2-yl)ethanol], the Ki amounted to 0.47 µM.
